Patent publication US20230203060A1 (GENFLEET THERAPEUTICS (SHANGHAI) INC., priority 2020, published 2023)

Key:
[1] = test system: phosphorylated ERK downstream of KRAS G12C in MIA PaCa2 cells; assay: Cell p-ERK detection experiment (HTRF) in MIA PaCa2; assay type: cell-based, human; conditions: Homo sapiens, MIA PaCa-2, 2 h, MIA PaCa2 cells, 2 hours with compound, Advance ERK phospho-T202/Y204 HTRF kit; read-out: p-ERK IC50
Excerpt: Raw materials and instruments: MIA PaCa-2 purchased from ATCC; article number: CRL-1420; batch number: 63143594; DMEM purchased from Gibco; article number: 11995-065; batch number: 2186878; FBS purchased from Gibco; article number: 10099-141; batch number: 2109290CP; Horse serum purchased from Gibco; article number: 16050-122; batch number: 1818976; Trypsin-EDTA purchased from Gibco; article number: 25200-072; batch number: 2085552; PS purchased from Gibco; article number: 15140-122; batch number: 2145451; DMSO purchased from VWR AMRESCO; article number: 0231-500ML; batch number: 0457C072; 96-well cell culture plate purchased from Corning; article number: 3599; batch number: 22718601; white opaque 96-well plate purchased from Cisbio; article number: 66PL96025; batch number: N°05; Advance ERK phospho-T202/Y204 kit purchased from Cisbio; article number: 64AERPEH; batch number: 11D; microplate reader purchased from PerkinElmer; model: Envision MLD2105-0020; equipment number 1050369.
MIA PaCa2 was a KRAS G12C mutant human pancreatic cancer cell line cultured in 10% FBS+2.5% Horse serum DMEM culture medium. Cells at logarithmic growth stage were taken, digested with trypsin-EDTA, then collected and counted, and 2.5E4 cells were inoculated in a 96-well cell culture plate and cultured overnight. A 3.16-fold gradient concentration stock solution of 1000× compound was prepared with DMSO, and diluted 200-fold to 5× compound stock solution with culture medium. On the second day after cell inoculation, 5× compound stock solution was added to each cell culture well, with a final concentration of 1× and a DMSO content of 0.1%. DMSO was used as experimental control (control). After the compound was added and cultured for two hours, the residual culture medium was removed. 50 μL of cell lysate (from Advance ERK phospho-T202/Y204 kit, the same below) was added to each well, mixed well and incubated for 30 minutes, and then 16 μL of the mixed solution was transferred to a white opaque 96-well plate, and 16 μL of cell lysate was added to the blank wells. After the transfer was completed, 4 μL of p-ERK HTRF antibody (from Advance ERK phospho-T202/Y204 kit) mixture was added to each well, incubated for 4 hours, and the fluorescence value was read with the microplate reader. The inhibition rate of the compound IR (%)=(RLU control -RLU compound)/(RLU control-RLU blank)×100% was calculated. The gradient dilution concentration of the compound and the corresponding cell proliferation inhibition rate were fitted by Prism 8 four-parameter method, and the IC50 value was calculated. The compounds prepared in the above embodiments of the present disclosure have inhibitory activity of 0.0001 μM to 1 μM on the phosphorylated ERK level downstream of the cell channel of KRAS G12C protein mutant; some compounds have inhibitory activity of 0.001 μM to 1 μM or 0.001 μM to 0.5 μM on phosphorylated ERK level downstream of cell channel of KRAS G12C protein mutant.

KRAS G12C = target: T1, KRAS G12C (Homo sapiens, UniProt P01116, G12C); assay: KRAS G12C NEA-HTRF experiment (SOS1-catalyzed displacement of GDP by GTP); assay type: biochemical
T1 construct: purchased Reactionbiology
T1 sequence (P01116 1-188 isoform P01116-2 G12C): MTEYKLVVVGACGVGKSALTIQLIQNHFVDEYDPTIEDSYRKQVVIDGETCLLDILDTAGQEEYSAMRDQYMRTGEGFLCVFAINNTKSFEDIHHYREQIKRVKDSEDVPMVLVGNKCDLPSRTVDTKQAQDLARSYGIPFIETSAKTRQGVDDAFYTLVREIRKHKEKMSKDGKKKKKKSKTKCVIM
Method in brief: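 His-tagged KRAS G12C preloaded with DY647-GDP was preincubated 15 min at 20 °C with compound, then exchanged with SOS1 (0.2 μM working solution) and GTP (200 μM working solution) for 2 h at 20 °C in the dark. HTRF 665/615 nm ratio with anti-His-Tb was normalised to T0 and no-compound controls; IC50 by four-parameter fit.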

| IC50 [1] [µM] | IC50 (KRAS G12C) [µM] | Compound |
| --- | --- | --- |
| 0.035 | 0.029 | C=CC(=O)N1CCN2C(=O)c3c(N4CCC[C@@]4(C)CO)nc(-c4c(O)cccc4F)c(Cl)c3OC[C@H]2C1 [Z279-2] |
| 0.036 | 0.062 | C=CC(=O)N1CCN2C(=O)c3c(N4CCN(CC)C(C)(C)C4)nc(-c4c(O)cccc4F)c(Cl)c3OC[C@H]2C1 [Z322, (6aR)-8-actyloyl-4-chloro-3-(2-fluoro-6-hydroxyphenyl)-1-(4-ethyl-3,3-dimethylpiperazin-1-yl)-6,6a,7,8,9,10-hexahydro-12H-pyrazino[2,1-c]pyrido[3,4-f][1,4]oxazepin-12-one] |
| 0.13 | 0.13 | C=CC(=O)N1CCN2C(=O)c3c(N4CCO[C@](C)(COC)C4)nc(-c4c(O)cccc4F)c(Cl)c3OC[C@H]2C1 (single isomer, unassigned) [Z332-1] |
| 0.085 | 0.0981 | C=CC(=O)N1CCN2C(=O)c3c(N4CC[C@@H](N(C)C)C4(C)C)nc(-c4c(O)cccc4F)c(Cl)c3OC[C@H]2C1 (single isomer, unassigned) [Z360-1] |
| 0.029 | 0.0686 | C=CC(=O)N1CCN2C(=O)c3c(N4CCN(C)C(C)C4C)nc(-c4c(O)cccc4F)c(Cl)c3OC[C@H]2C1 (stereo partly drawn) [Z369, (6aR)-8-acryloyl-4-chloro-3-(2-fluoro-6-hydroxyphenyl)-1-(2,3,4-trimethylpiperazin-1-yl)-6,6a,7,8,9,10-hexahydro-12H-pyrazino[2,1-c]pyrido[3,4-f][1,4]oxazepin-12-one] |
| 0.016 | 0.009 | C=CC(=O)N1CCN2C(=O)c3c(N4CC(=O)N(CC)C[C@@H]4C)nc(-c4c(O)cccc4F)c(Cl)c3OC[C@H]2C1 [Z319-1, (6aR)-8-acryloyl-4-chloro-1-((S)-4-ethyl-2-methyl-5-oxopiperazin-1-yl)-3-(2-fluoro-6-hydroxyphenyl)-6,6a,7,8,9,10-hexahydro-12H-pyrazino[2,1-c]pyrido[3,4-f][1,4]oxazepin-12-one] |
| 0.119 | 0.101 | C=CC(=O)N1CCN2C(=O)c3c(N4CCN(C)C[C@@H]4C)nc(-c4c(O)ccc(Cl)c4F)c(Cl)c3OC[C@H]2C1 [Z343, (6aR)-8-acryloyl-4-chloro-3-(3-chloro-2-fluoro-6-hydroxyphenyl)-1-((S)-2,4-dimethylpiperazin-1-yl)-6,6a,7,8,9,10-hexahydro-12H-pyrazino[2,1-c]pyrido[3,4-f][1,4]oxazepin-12-one] |
| 0.011 | 0.012 | C=CC(=O)N1CCN2C(=O)c3c(N4CC[C@H](OC)[C@@H]4C)nc(-c4c(O)cccc4F)c(Cl)c3OC[C@H]2C1 [Z347-1, (6aR)-8-acryloyl-4-chloro-3-(2-fluoro-6-hydroxyphenyl)-1-((2S,3S)-3-methoxy-2-methylpyrrolidin-1-yl)-6,6a,7,8,9,10-hexahydro-12H-pyrazino[2,1-c]pyrido[3,4-f][1,4]oxazepin-12-one] |
| 0.108 | 0.076 | C=CC(=O)N1CCN2C(=O)c3c(N4C[C@](C)(O)CC4(C)C)nc(-c4c(O)cccc4F)c(Cl)c3OC[C@H]2C1 (single isomer, unassigned) [Z243-2] |
| 0.027 | 0.026 | C=CC(=O)N1CCN2C(=O)c3c(N4C[C@H](OC)C[C@@H]4C)nc(-c4c(O)cccc4F)c(Cl)c3OC[C@H]2C1 [Z259a, (6aR)-8-acryloyl-4-chloro-3-(2-fluoro-6-hydroxyphenyl)-1-((2S,4R)-4-methoxy-2-methylpyrrolidin-1-yl)-6,6a,7,8,9,10-hexahydro-12H-pyrazino[2,1-c]pyrido[3,4-f][1,4]oxazepin-12-one] |
| 0.253 | 0.161 | C=CC(=O)N1CCN2C(=O)c3c(N4CCN(C)C[C@@H]4C)nc(-c4c(F)ccc(F)c4O)c(Cl)c3OC[C@H]2C1 [Z356, (6aR)-8-acryloyl-4-chloro-3-(3,6-difluoro-2-hydroxyphenyl)-1-((S)-2,4-dimethylpiperazin-1-yl)-6,6a,7,8,9,10-hexahydro-12H-pyrazino[2,1-c]pyrido[3,4-f][1,4]oxazepin-12-one] |
| 0.016 | 0.021 | C=CC(=O)N1CCN2C(=O)c3c(N4CC(C#N)CC4(C)C)nc(-c4c(O)cccc4F)c(Cl)c3OC[C@H]2C1 (stereo partly drawn) [Z275, (6aR)-8-acryloyl-1-(4-cyano-2,2-dimethylpyrrolidin-1-yl)-4-chloro-3-(2-fluoro-6-hydroxyphenyl)-6,6a,7,8,9,10-hexahydro-12H-pyrazino[2,1-c]pyrido[3,4-f][1,4]oxazepin-12-one] |
| 0.03 | 0.065 | C=CC(=O)N1CCN2C(=O)c3c(N4C[C@@H](N(C)C)C[C@@H]4C)nc(-c4c(O)cccc4F)c(Cl)c3OC[C@H]2C1 [Z237-2, (6aR)-8-acryloyl-4-chloro-1-((2S,4S)-4-(dimethylamino)-2-methylpyrrolidin-1-yl)-3-(2-fluoro-6-hydroxyphenyl)-6,6a,7,8,9,10-hexahydro-12H-pyrazino[2,1-c]pyrido[3,4-f][1,4]oxazepin-12-one] |
| 0.13 | 0.078 | C=CC(=O)N1CCN2C(=O)c3c(N4CC(C#N)CC4(C)C)nc(-c4c(O)cccc4F)c(F)c3OC[C@H]2C1 (stereo partly shown) [Z335] |
| 0.042 | 0.041 | C=CC(=O)N1CCN2C(=O)c3c(N4C[C@@H](OC)CC4(C)C)nc(-c4c(O)cccc4F)c(F)c3OC[C@H]2C1 (single isomer, unassigned) [Z256a-1] |
| 0.025 | 0.0369 | C=CC(=O)N1CCN2C(=O)c3c(N4CC[C@H](N(C)C)C4(C)C)nc(-c4c(O)cccc4F)c(Cl)c3OC[C@H]2C1 (single isomer, unassigned) [Z360-2] |
| 0.134 | 0.103 | C=CC(=O)N1CCN2C(=O)c3c(N4C[C@H](O)[C@H]4C)nc(-c4c(O)cccc4F)c(Cl)c3OC[C@H]2C1 (single isomer, unassigned) [Z102-4] |
| – | 0.098 | C=CC(=O)N1CCN2C(=O)c3c(N4C[C@H](O)CC4(C)C)nc(-c4c(O)ccc(Cl)c4F)c(F)c3OC[C@H]2C1 (single isomer, unassigned) [Z340-2] |
| 0.086 | – | C=CC(=O)N1CCN2C(=O)c3c(N(C)c4c(C(C)C)ncnc4C(C)C)nc(-c4c(O)cccc4F)c(Cl)c3OC[C@H]2C1 [Z20, (6aR)-8-acryloyl-4-chloro-1-((4,6-diisopropylpyrimidin-5-yl)(methyl)amino)-3-(2-fluoro-6-hydroxyphenyl)-6,6a,7,8,9,10-hexahydro-12H-pyrazino[2,1-c]pyrido[3,4-f][1,4]oxazepin-12-one] |
| 0.065 | – | C=CC(=O)N1CCN2C(=O)c3c(Nc4c(C(C)C)ncnc4C(C)C)nc(-c4c(O)cccc4F)c(Cl)c3OC[C@H]2C1 [Z15, (6aR)-8-acryloyl-4-chloro-1-((4,6-diisopropylpyrimidin-5-yl)amino)-3-(2-fluoro-6-hydroxyphenyl)-6,6a,7,8,9,10-hexahydro-12H-pyrazino[2,1-c]pyrido[3,4-f][1,4]oxazepin-12-one] |
| – | 0.191 | C=CC(=O)N1CCN2C(=O)c3c(N4CCO[C@](C)(CO)C4)nc(-c4c(O)cccc4F)c(Cl)c3OC[C@H]2C1 (single isomer, unassigned) [Z333-1] |
| 0.325 | – | C=CC(=O)N1CCN2C(=O)c3c(N4CCC(C)(C)C4)nc(-c4c(O)cccc4F)c(Cl)c3OC[C@H]2C1 [Z21, (6aR)-8-acryloyl-4-chloro-1-(3,3-dimethylpyrrolidin-1-yl)-3-(2-fluoro-6-hydroxyphenyl)-6,6a,7,8,9,10-hexahydro-12H-pyrazino[2,1-c]pyrido[3,4-f][1,4]oxazepin-12-one] |
| – | 0.124 | C=CC(=O)N1CCN2C(=O)c3c(N4CCN(C5COC5)C[C@@H]4C)nc(-c4c(O)cccc4F)c(Cl)c3OC[C@H]2C1 (single isomer, unassigned) [Z239-1] |
